From ChEMBL document CHEMBL1949658, “3D-QSAR and 3D-QSSR models of negative allosteric modulators facilitate the design of a novel selective antagonist of human α4β2 neuronal nicotinic acetylcholine receptors” (Bioorg Med Chem Lett, 2012)

Experiments:
Homo sapiens [1] = species: Homo sapiens; assay: Selectivity ratio of IC50 for human nAChR alpha3/beta4 receptor to IC50 for human nAChR alpha4/beta2 receptor
[2] = target: Neuronal acetylcholine receptor; alpha3/beta4 (Homo sapiens, UniProt P30926+P32297); assay: Antagonist activity at human nAChR alpha3/beta4 receptor expressed in HEK ts201 cells assessed as calcium accumulation by fluorescence analysis; type: functional, cell-based
Neuronal acetylcholine receptor; alpha3/beta4, sequence (P30926 whole entry): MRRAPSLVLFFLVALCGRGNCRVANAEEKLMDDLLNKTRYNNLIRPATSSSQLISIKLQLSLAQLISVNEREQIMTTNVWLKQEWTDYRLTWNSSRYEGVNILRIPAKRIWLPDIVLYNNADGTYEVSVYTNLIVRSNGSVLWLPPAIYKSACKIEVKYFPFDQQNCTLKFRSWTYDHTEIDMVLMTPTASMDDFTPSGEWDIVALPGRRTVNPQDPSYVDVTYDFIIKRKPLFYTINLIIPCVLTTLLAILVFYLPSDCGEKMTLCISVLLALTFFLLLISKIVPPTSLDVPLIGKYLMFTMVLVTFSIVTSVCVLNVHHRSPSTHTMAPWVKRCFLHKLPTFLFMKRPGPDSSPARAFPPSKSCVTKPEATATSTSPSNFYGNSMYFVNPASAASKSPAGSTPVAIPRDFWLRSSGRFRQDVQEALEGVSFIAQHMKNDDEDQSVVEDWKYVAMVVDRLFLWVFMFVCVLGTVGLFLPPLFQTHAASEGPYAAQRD
Neuronal acetylcholine receptor; alpha3/beta4, sequence (P32297 whole entry): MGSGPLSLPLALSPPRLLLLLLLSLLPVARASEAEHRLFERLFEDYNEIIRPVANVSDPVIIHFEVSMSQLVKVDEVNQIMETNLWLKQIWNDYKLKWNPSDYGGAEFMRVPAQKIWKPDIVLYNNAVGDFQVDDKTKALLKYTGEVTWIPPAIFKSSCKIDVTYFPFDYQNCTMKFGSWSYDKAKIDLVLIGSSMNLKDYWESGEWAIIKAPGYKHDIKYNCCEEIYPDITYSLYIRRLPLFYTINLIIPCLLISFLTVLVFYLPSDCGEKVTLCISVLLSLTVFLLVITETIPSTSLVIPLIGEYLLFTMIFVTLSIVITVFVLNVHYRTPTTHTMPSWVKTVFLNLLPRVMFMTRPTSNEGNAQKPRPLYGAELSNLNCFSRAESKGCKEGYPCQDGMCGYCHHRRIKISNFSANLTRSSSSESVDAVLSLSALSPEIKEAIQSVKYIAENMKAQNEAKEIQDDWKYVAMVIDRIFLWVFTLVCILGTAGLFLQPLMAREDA

[3] = target: Neuronal acetylcholine receptor; alpha4/beta2 (Homo sapiens, UniProt P17787+P43681); assay: Antagonist activity at human nAChR alpha4/beta2 receptor expressed in HEK ts201 cells assessed as calcium accumulation by fluorescence analysis; type: functional, cell-based
Neuronal acetylcholine receptor; alpha4/beta2, sequence (P17787 whole entry): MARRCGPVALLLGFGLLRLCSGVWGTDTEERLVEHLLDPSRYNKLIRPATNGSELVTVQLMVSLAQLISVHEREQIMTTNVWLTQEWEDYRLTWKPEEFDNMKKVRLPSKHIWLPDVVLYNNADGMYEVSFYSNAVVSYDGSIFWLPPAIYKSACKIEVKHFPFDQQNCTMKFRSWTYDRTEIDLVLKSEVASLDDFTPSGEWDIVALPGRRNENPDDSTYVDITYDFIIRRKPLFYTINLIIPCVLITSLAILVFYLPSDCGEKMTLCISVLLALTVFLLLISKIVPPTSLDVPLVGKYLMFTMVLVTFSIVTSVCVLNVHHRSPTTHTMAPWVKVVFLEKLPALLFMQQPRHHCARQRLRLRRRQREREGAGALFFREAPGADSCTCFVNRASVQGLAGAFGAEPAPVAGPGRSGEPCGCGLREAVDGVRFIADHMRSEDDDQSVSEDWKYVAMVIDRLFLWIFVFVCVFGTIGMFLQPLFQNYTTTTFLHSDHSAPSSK
Neuronal acetylcholine receptor; alpha4/beta2, sequence (P43681 whole entry): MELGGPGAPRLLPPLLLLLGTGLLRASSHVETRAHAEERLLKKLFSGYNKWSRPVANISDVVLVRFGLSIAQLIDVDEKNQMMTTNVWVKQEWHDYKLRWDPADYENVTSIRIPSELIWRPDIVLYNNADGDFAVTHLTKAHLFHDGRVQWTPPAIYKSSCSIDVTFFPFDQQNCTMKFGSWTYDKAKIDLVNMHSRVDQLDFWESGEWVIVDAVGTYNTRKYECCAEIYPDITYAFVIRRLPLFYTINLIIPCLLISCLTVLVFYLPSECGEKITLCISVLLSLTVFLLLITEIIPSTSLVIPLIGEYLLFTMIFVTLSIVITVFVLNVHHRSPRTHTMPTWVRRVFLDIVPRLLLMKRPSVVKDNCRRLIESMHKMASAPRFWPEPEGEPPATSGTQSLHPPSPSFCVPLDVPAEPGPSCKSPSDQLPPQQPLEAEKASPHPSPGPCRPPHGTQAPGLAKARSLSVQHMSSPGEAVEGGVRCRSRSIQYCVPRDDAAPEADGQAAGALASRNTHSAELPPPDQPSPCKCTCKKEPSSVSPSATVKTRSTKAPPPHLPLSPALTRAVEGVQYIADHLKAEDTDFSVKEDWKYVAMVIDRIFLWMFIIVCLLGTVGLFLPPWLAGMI

[4] = Lipophilicity, log P of the compound; type: physicochemical; settings: octanol/water
Homo sapiens [5] = species: Homo sapiens; assay: Selectivity ratio of pIC50 for human nAChR alpha3/beta4 receptor to pIC50 for human nAChR alpha4/beta2 receptor

Row | SMILES | Ratio IC50 (Homo sapiens [1]) | IC50 ([2]; read-out: IC50) [µM] | IC50 ([3]; read-out: IC50) [µM] | logP [4] | Ratio pIC50 (Homo sapiens [5]) | IC50 ([2]; read-out: pIC50 (converted)) [µM] | IC50 ([3]; read-out: pIC50 (converted)) [µM]
1 | O=C(Nc1ccccn1)c1ccccc1-c1ccccc1 | 1.3 | 17.5 | 13.6 |  |  |  | 
2 | O=C(NCc1cccc2ccccc12)c1ccccc1-c1ccccc1 | > 10 | > 100 | 13.9 | 5 |  |  | 
3 | O=C(OCC1CCCN(CCCc2ccccc2)C1)c1ccccc1-c1ccccc1 (stereo not given) |  | > 100 | 13.5 | 5.9 | 3.87 |  | 
4 | O=C(Nc1cccc2ccccc12)c1ccccc1-c1ccccc1 | 1.8 | 18.2 | 10.7 |  |  |  | 
5 | O=C(Nc1ccncn1)c1ccccc1-c1ccccc1 | 1.6 | 39.6 | 25.1 |  |  |  | 
6 | CCN1CC(OC(=O)c2ccccc2N2C(=O)CC(C)C2=O)C2CC1C1OC(C)(C)OC21 (stereo not given) |  |  |  |  | 0.81 | 77.6 | 12
7 | O=C(OCC1CCN(C(=O)CCc2ccccc2)CC1)c1ccccc1-c1ccccc1 | 1.4 | 9.4 | 5.9 |  |  |  | 
8 | CC1(C)OC2C3CC(C2O1)N(CCCc1ccccc1)CC3OC(=O)c1ccccc1-c1ccccc1 (stereo not given) |  |  |  |  | 0.08 | 13.8 | 11.5
9 | CC1(C)CC(=O)N(c2ccccc2C(=O)OCC2CCCN(CCCc3ccccc3)C2)C1=O (single isomer, unassigned) |  |  |  |  | 0.01 | 5.01 | 4.9
10 | O=C(NCc1ccccc1)c1ccccc1-c1ccccc1 | 1 | 7.6 | 7.5 |  |  |  | 
11 | COc1ccc(OCCCCCN2CCCC(COC(=O)c3ccccc3N3C(=O)CC(C)C3=O)C2)cc1OC (stereo not given) |  |  |  |  | 2.38 | 2000 | 8.32
12 | O=C(OCC1CCCN(CCc2ccccc2)C1)c1ccccc1N1C(=O)CC(Cc2ccccc2)C1=O (stereo not given) |  |  |  |  | 0.42 | 11.7 | 4.47
13 | COc1ccc(CC2CC(=O)N(c3ccccc3C(=O)OCC3CCCN(CCCc4ccccc4)C3)C2=O)cc1 (stereo not given) |  |  |  |  | -0.13 | 28.8 | 38.9
14 | CCN1CCCC(COC(=O)c2ccccc2N2C(=O)CC(Cc3ccccc3)C2=O)C1 (stereo not given) |  |  |  |  | 0.42 | 11.7 | 4.47
15 | CC1CC(=O)N(c2ccccc2C(=O)OCC2CCCN(CCc3c[nH]c4ccccc34)C2)C1=O (stereo not given) |  |  |  |  | 1.12 | 74.1 | 5.62
16 | Cc1ccc(OCCN2CCCC(COC(=O)c3ccccc3N3C(=O)CC(C)C3=O)C2)cc1 (stereo not given) |  |  |  |  | 0.22 | 18.6 | 11.2
17 | CC1CC(=O)N(c2ccccc2C(=O)OCC2CCCN(CCOc3ccc(Cl)c(Cl)c3)C2)C1=O (stereo not given) |  |  |  |  | 0.06 | 17.4 | 15.1
18 | CC1CC(=O)N(c2ccccc2C(=O)OCC2CCCN(CCOc3cccc(-c4ccccc4)c3)C2)C1=O (stereo not given) |  |  |  |  | 0.57 | 26.9 | 7.24
19 | CC1CC(=O)N(c2ccccc2C(=O)OCC2CCCN(CCCCCOc3ccc(Cl)c(Cl)c3)C2)C1=O (stereo not given) |  |  |  |  | -0.28 | 9.12 | 17.4
20 | O=C(OCC1CCCN(C(=O)CCc2ccccc2)C1)c1ccccc1C(F)(F)F (stereo not given) | 2.1 | 6.3 | 3.9 |  |  |  | 
21 | O=C(OCc1ccccc1-c1ccccc1)C1CCCN(CCCc2ccccc2)C1 (single isomer, unassigned) |  |  |  |  | 0.24 | 10.2 | 17.8
22 | O=C(OC1CCCN(C(=O)CCc2ccccc2)C1)c1ccccc1-c1ccccc1 (stereo not given) | 1.5 | 6 | 4.3 |  |  |  | 
23 | O=C(OCC1CCCN(CCCCCOc2ccc(Cl)cc2)C1)c1ccccc1-c1ccccc1 (stereo not given) |  |  |  |  | 0.02 | 15.5 | 14.5
24 | CC1CC(=O)N(c2ccccc2C(=O)OCC2CCCN(CCOc3ccc4ccccc4c3)C2)C1=O (stereo not given) |  |  |  |  | -0.04 | 6.76 | 7.41
25 | O=C(Nc1ccccc1)c1ccccc1-c1ccccc1 | 1.6 | 10.7 | 6.9 |  |  |  | 
26 | O=C(OCC1CCCN(CCCn2cc(-c3ccccc3)nn2)C1)c1ccccc1-c1ccccc1 (single isomer, unassigned) |  |  |  |  | 1.78 | 389 | 6.46
